# According to patent US4207325A, “4-Substituted pyrazoles” (Bayer Aktiengesellschaft, priority 1975, dated 1980):
# Test system: venous thrombs (left jugular vein of rats)
# Experiment: antithrombotic action in rats: thromb formation in the supercooled left jugular vein, thromb isolated and weighed 4 hours later
# Assay type: in vivo
# Conditions: 10 mg/kg, administered orally
# Protocol: The left jugular vein of rats weighing 170 to 180 g was exposed under ether narcosis and supercooled to -12° C. for 2 minutes to stimulate thromb formation. The thromb was isolated from the vein 4 hours later, and was weighed. The test animals were given the test preparation in tragacanth mucilage immediately before supercooling the wall of the blood vessel. As a result, the protective antithrombotic activity was tested in the first 4 hours after stimulating thromb formation.
smiles,measurement,setting,value
"Cc1nn(C(C)c2ccc(Cl)c(Cl)c2)c(OC(=O)c2ccc(F)cc2)c1-c1ccccc1 (stereo not drawn) [Example 1, 5-(4-Fluorobenzoyloxy)-3-methyl-phenyl-1-(α-methyl-3,4-dichlorobenzyl)-pyrazole]",Inhibition in % (reduction of thromb size),"4 hour period of action, vs control without active compound",56%
same,"Thromb size, mean value","4 hours, 12 experiments, control 115 ± 12 (14 experiments)",51 ± 10 µg
